# Laboratory results published in US20250120987A1, “METHOD FOR TREATING CANCER USING HUMAN MIT[…] ENZYME 2 INHIBITOR” (priority 2023, published 2025).
# What was measured:
# human ME2 = molecular target: T1, human ME2 (Homo sapiens, UniProt P23368); experiment: ME2 inhibition test; type: biochemical; conditions: for IC50: Table 1, 40 mM L-malate, 2 mM NAD+, 10 mM MgCl2, read-out: IC50 with respect to ME2; for inhibiting the activity of ME2 (in words): summary of Table 1
# T1 construct: made in house; host or cells: Escherichia coli BL21
# T1 sequence (P23368 19-584): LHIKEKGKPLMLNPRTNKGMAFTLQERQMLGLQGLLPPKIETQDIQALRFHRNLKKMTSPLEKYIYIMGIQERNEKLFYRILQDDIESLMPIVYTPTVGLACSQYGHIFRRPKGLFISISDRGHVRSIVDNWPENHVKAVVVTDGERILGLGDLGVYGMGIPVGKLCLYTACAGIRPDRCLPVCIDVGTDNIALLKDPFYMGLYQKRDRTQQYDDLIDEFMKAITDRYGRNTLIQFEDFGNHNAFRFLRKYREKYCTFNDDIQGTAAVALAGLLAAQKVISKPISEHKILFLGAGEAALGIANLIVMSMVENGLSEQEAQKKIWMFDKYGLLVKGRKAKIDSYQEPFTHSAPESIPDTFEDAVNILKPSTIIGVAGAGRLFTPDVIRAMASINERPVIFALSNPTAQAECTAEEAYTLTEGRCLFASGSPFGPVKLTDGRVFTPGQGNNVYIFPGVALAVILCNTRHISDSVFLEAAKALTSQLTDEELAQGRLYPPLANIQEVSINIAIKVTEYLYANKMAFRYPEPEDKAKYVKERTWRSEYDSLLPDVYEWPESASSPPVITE
# H1299 cells [1] = experiment: Pyruvate and NADPH content of treated cells; type: cell-based, human; conditions: 25 μM, 48 hours, 20 mM L-malate
# Experimental: (§1) H1299 cells (3×10^5 cells) were cultured for 24 hours in separate culture media each containing 20 mM L-malate, with the culture environment being at 37° C. and containing 5% carbon dioxide. […]. After that, the cultured cells in each group were collected and were centrifuged in 100 μL of phosphate buffer, and the supernatants were collected. Once the proteins in the supernatants were removed, a pyruvate colorimetric/fluorometric assay kit and a PicoProbe™ NADPH quantification fluorometric assay kit were used to analyze the pyruvate content and NADPH content of the cells respectively (Ex/Em: at 535 nm and 587 nm). […]
# MCF-7 cells [2] = experiment: Pyruvate and NADPH content of treated cells; type: cell-based, human; conditions: 25 μM, 48 hours
# Experimental: as §1
# In addition, MCF-7 cells (6×10^5 cells) were cultured in the same way as the H1299 cells and had their pyruvate content and NADPH content analyzed.
# H1299 cells [3] = experiment: ATP and ROS content of treated cells; type: cell-based, human; conditions: 150 μM, 48 hours
# Experimental: H1299 cells (3×10^5 cells) were cultured in separate culture media each containing 20 mM L-malate. […]. Also, a ROS assay kit (#cat.MAK143, Sigma-Aldrich, St. Louis, MO, USA) was used to analyze the ROS contents of the cells, and the results are shown in FIG. 8. […]
# H1299 cells [4] = experiment: Seahorse XF cell mito stress test (oxygen consumption rate); type: cell-based, human; conditions: 75 and 150 μM, 3 hours
# Experimental: (§9) Finally, a Seahorse XFe24 analyzer was used to perform a Seahorse XF cell mito stress test on the cells to obtain the oxygen consumption rates (OCR) of the cells, and the test results are shown in FIG. 9 to FIG. 18. The control groups were formed by cells to which no EA or MDSA was added.
# MCF-7 cells [5] = experiment: as above; type: cell-based, human
# Experimental: as §9
# H1299 cells [6] = experiment: Cell invasion assay (Transwell/Matrigel); type: cell-based, human; conditions: 150 μM, 24 hours
# Experimental: (§2) […]. A culture medium containing 10% fetal bovine serum was subsequently added to the lower chambers. […] The vehicle groups, which were formed by cells to which no EA or MDSA was added, were provided to enable the calculation of the amount of the cells in each EA or MDSA-treated group in relation to the amount of the cells in the corresponding vehicle group at the end of the assay so that changes in the relative amounts of cells can be observed with ease.
# MCF-7 cells [7] = experiment: Cell invasion assay (Transwell/Matrigel); type: cell-based, human; conditions: 150 μM, 24 hours
# Experimental: as §2
# THP-1 cells [8] = experiment: Animal test, ASID mice transplanted with THP-1 cells; type: in vivo; conditions: 4 mg/kg, intravenous, day 21
# Experimental: (§3) A plurality of 8-week-old ASID mice (or mice with advanced severe immunodeficiency, or more specifically NOD.Cg-Prkde^scidIl2rg^tm1Wjl/YckNarl mice) were randomly divided into 6 groups. Each group of mice was intravenously injected with one of a plurality of differently treated AML cell variants at a frequency of 5 days per week for 4 weeks. The AML cell variants injected into the 6 groups of mice are as follows: • Group 1-1: THP-1 cells • Group 2-1: THP-1 cells with EA (at a dosage of 4 mg/kg) • Group 3-1: THP-1 cells with Na2EA (at a dosage of 4 mg/kg) • Group 1-2: MV4-11 cells • Group 2-2: MV4-11 cells with EA (at a dosage of 4 mg/kg) • Group 3-2: MV4-11 cells with Na2EA (at a dosage of 4 mg/kg)
# (§4) On the 21st day of the test, peripheral blood was collected from the submandibular vein of the mice, and bone marrow was collected as well. The blood and bone marrow were stained with specific markers (CD33 and CD45) and then reacted with a fluorescent antibody, before the CD33+ or CD45^+-stained cells were quantified with a flow cytometer.
# MV4-11 cells [9] = experiment: Animal test, ASID mice transplanted with MV4-11 cells; type: in vivo; conditions: 4 mg/kg, intravenous, day 21
# Experimental: as §3, §4
# H1299 cells [10] = conditions: 150 μM, 48 hours
# Experimental: (§10) A 24-well plate was inoculated with H1299 cells (1.5×10^5 cells) and MCF-7 cells (3.0×10^5 cells), and the cells were cultured in a 37° C. and 5% carbon dioxide environment for 24 hours in order for a confluent monolayer of cells to be formed. After that, the culture medium was removed, and the cells were washed with a phosphate buffer. […] Cell migration was observed under an automated microscope, and a quantitative analysis of cells was performed at the same time.
# MCF-7 cells [11] = conditions: 150 μM, 48 hours
# Experimental: as §10
# HL-60 cells [12] = experiment: Cell survival assay; type: cell-based, human
# Experimental: (§5) In the following assay, therefore, the NazEA dosage of 150 μM was used.
# MV4-11 cells [13] = experiment: Cell survival assay; type: cell-based, human
# Experimental: as §5
# THP-1 cells [14] = experiment: Cell survival assay; type: cell-based, human
# Experimental: as §5
# HL-60 cells [15] = experiment: Apoptosis rate (Annexin V, flow cytometer); type: cell-based, human; conditions: 150 μM
# Experimental: (§6) HL-60 cells, THP-1 cells, and MV4-11 cells were each divided into two groups, namely a vehicle group to be cultured in an RPMI culture medium and a group to be cultured in an RPMI culture medium containing 150 μM Na2EA. After culturing for 24 hours, the culture media were renewed. After culturing for another 48 hours, a commercially available apoptosis detection kit (Annexin V Apoptosis Detection Kit) and flow cytometer were used to analyze the apoptosis rates of the cells, and the results are shown in FIG. 34. In addition, a commercially available cell viability assay kit (CellTiter-Glo® 2.0 Cell Viability Assay Kit), a NAD/NADH-Glo™ assay kit, a commercially available intracellular ROS assay kit (#cat.MAK143, Sigma-Aldrich, St. Louis, MO, USA), and a commercially available pyruvate colorimetric/fluorometric assay kit were used to analyze the NADPH, ROS, and ATP contents of each group of cells, and the results are shown in FIG. 35 to FIG. 37.
# MV4-11 cells [16] = experiment: Apoptosis rate (Annexin V, flow cytometer); type: cell-based, human; conditions: 150 μM
# Experimental: as §6
# THP-1 cells [17] = experiment: Apoptosis rate (Annexin V, flow cytometer); type: cell-based, human; conditions: 150 μM
# Experimental: as §6
# HL-60 cells [18] = experiment: Metabolite contents of AML cells (NADPH, ROS, ATP, pyruvate, NADH, glutamic acid); type: cell-based, human; conditions: 150 μM
# Experimental: as §6
# (§7) Furthermore, the cells in each group were stained with ATP-Red Live Cell Dye (BioTracker™ ATP-Red Live Cell Dye) and were observed and quantified under a fluorescence microscope, with the quantification results shown in FIG. 38. The oxygen consumption rate of each group of cells was also determined in the same way as in example 6, with the introduction of different stress testing conditions, and the results are shown in FIG. 39 to FIG. 44.
# (§8) Besides, the […], pyruvate, NAD^+, NADH, and glutamic acid contents of each group of cells were analyzed with a NAD/NADH-Glo™ assay kit, a commercially available pyruvate colorimetric/fluorometric assay kit, and a commercially available Glutamine/Glutamate-Glo™ assay kit (#Cat. J8021; Promega, Madison, WI, USA) in the same way as in example 9, and the results are shown in FIG. 45 to FIG. 48.
# MV4-11 cells [19] = experiment: as above; type: cell-based, human; conditions: 150 μM
# Experimental: as §6, §7, §8
# THP-1 cells [20] = experiment: as above; type: cell-based, human; conditions: 150 μM
# Experimental: as §6, §7, §8
# HL-60 cells [21] = experiment: Oxygen consumption rate of AML cells; type: cell-based, human; conditions: 150 μM
# THP-1 cells [22] = experiment: Oxygen consumption rate of AML cells; type: cell-based, human; conditions: 150 μM
# MV4-11 cells [23] = experiment: Oxygen consumption rate of AML cells; type: cell-based, human; conditions: 150 μM
# HL-60 cells [24] = experiment: Mass spectrometric analysis of metabolic intermediates; type: cell-based, human; conditions: 150 μM, UPLC-MS
# Experimental: The Na2EA-treated HL-60 cells (1×10^7 cells) and the HL-60 cells untreated with NazEA (1×10^7 cells) in example 10 were taken, added into 1 mL of 80% methanol, and centrifuged at 4° C. and 12,000×g for 10 minutes. After the supernatants were evaporated with nitrogen gas, an analysis was performed using a Waters ultra-high performance liquid chromatograph coupled with Waters Xevo TQ-S MS (Waters Corp. Milford, MA, USA).
smiles,measurement,setting,value
O=C(O)c1cc2ccccc2cc1O [3-hydroxy-2-naphthoic acid],IC50,human ME2,105 µM
same,inhibiting the activity of ME2 (in words),human ME2,relatively effective
"O=C(O)c1cc2ccccc2c(Cc2c(O)c(C(=O)O)cc3ccccc23)c1O [EA, 4,4′-methylene-bis(3-hydroxy-2-naphthoic acid)]",NADPH content,H1299 cells [1],reduce
same,pyruvate content,H1299 cells [1],reduce
same,NADPH content,MCF-7 cells [2],not reduced significantly
same,pyruvate content,MCF-7 cells [2],not reduced significantly
same,ATP content,H1299 cells [3],lower
same,ROS content,H1299 cells [3],increase
same,ATP generation (mitochondrial electron transport chain),H1299 cells [4],reduced
same,basal respiration rate,H1299 cells [4],reduced
same,maximum respiration rate,H1299 cells [4],reduced
same,spare respiratory capacity,H1299 cells [4],reduced
same,ATP generation,MCF-7 cells [5],remained the same
same,basal respiration rate,MCF-7 cells [5],remained the same
same,maximum respiration rate,MCF-7 cells [5],remained the same
same,spare respiratory capacity,MCF-7 cells [5],remained the same
same,cell invasion,H1299 cells [6],inhibit
same,cell invasion,MCF-7 cells [7],cannot inhibit
same,AML cells in mice (CD33+ / CD45+ stained cells in peripheral blood and bone marrow),THP-1 cells [8],reduce
same,AML cells in mice (CD33+ / CD45+ stained cells in peripheral blood and bone marrow),MV4-11 cells [9],reduce
same,cell migration,H1299 cells [10],inhibit
same,cell migration,MCF-7 cells [11],cannot inhibit
"O=C(O)c1cc2ccccc2c(Cc2c([O-])c(C(=O)O)cc3ccccc23)c1[O-].[Na+].[Na+] [Na2EA, disodium embonate]",IC50,HL-60 cells [12],~120 µM
same,IC50,MV4-11 cells [13],~120 µM
same,IC50,THP-1 cells [14],~120 µM
same,apoptosis rate,HL-60 cells [15],60-75%
same,apoptosis rate,MV4-11 cells [16],60-75%
same,apoptosis rate,THP-1 cells [17],60-75%
same,ATP content,HL-60 cells [18],greatly reduced
same,NAD+/NADH ratio,HL-60 cells [18],increased
same,NADH content,HL-60 cells [18],reduced
same,NADPH content,HL-60 cells [18],greatly reduced
same,ROS steady state,HL-60 cells [18],destroyed
same,glutamic acid content,HL-60 cells [18],increased
same,pyruvate content,HL-60 cells [18],reduced
same,ATP content,MV4-11 cells [19],greatly reduced
same,NAD+/NADH ratio,MV4-11 cells [19],increased
same,NADH content,MV4-11 cells [19],reduced
same,NADPH content,MV4-11 cells [19],greatly reduced
same,ROS steady state,MV4-11 cells [19],destroyed
same,glutamic acid content,MV4-11 cells [19],increased
same,pyruvate content,MV4-11 cells [19],reduced
same,ATP content,THP-1 cells [20],greatly reduced
same,NAD+/NADH ratio,THP-1 cells [20],increased
same,NADH content,THP-1 cells [20],reduced
same,NADPH content,THP-1 cells [20],greatly reduced
same,ROS steady state,THP-1 cells [20],destroyed
same,glutamic acid content,THP-1 cells [20],increased
same,pyruvate content,THP-1 cells [20],reduced
same,mitochondrial proton leak,HL-60 cells [21],lowered
same,oxygen consumption rate,HL-60 cells [21],lowered
same,yield of ATP by the mitochondrial electron transport chains,HL-60 cells [21],lowered
same,mitochondrial proton leak,THP-1 cells [22],lowered
same,oxygen consumption rate,THP-1 cells [22],lowered
same,yield of ATP by the mitochondrial electron transport chains,THP-1 cells [22],lowered
same,mitochondrial proton leak,MV4-11 cells [23],lowered
same,oxygen consumption rate,MV4-11 cells [23],lowered
same,yield of ATP by the mitochondrial electron transport chains,MV4-11 cells [23],lowered
same,fructose-6-phosphate (F-6-P) content,HL-60 cells [24],suppress
same,glucose-1-phosphate (G-1-P) content,HL-60 cells [24],suppress
same,glucose-6-phosphate (G-6-P) content,HL-60 cells [24],suppress
same,glutamic acid content,HL-60 cells [24],increasing
same,glutamine content,HL-60 cells [24],increasing
same,AML cells in mice (CD33+ / CD45+ stained cells in peripheral blood and bone marrow),THP-1 cells [8],reduce
same,effectiveness in reducing AML cells compared with EA,THP-1 cells [8],more effective in reducing AML cells than EA
same,AML cells in mice (CD33+ / CD45+ stained cells in peripheral blood and bone marrow),MV4-11 cells [9],reduce
same,effectiveness in reducing AML cells compared with EA,MV4-11 cells [9],more effective in reducing AML cells than EA
O=C(O)c1ccccc1O [Salicylic acid],IC50,human ME2,801 µM
"O=C(O)c1cc2cc(O)ccc2cc1O [3,7-dihydroxy-2-naphthoic acid]",IC50,human ME2,37.6 µM
"O=C(O)c1cc2cccc(O)c2cc1O [3,5-dihydroxy-2-naphthoic acid]",IC50,human ME2,12.4 µM
same,inhibiting the activity of ME2 (in words),human ME2,relatively effective
O=C(O)c1cc2cc(Br)ccc2cc1O [7-bromo-3-hydroxy-2-naphthoic acid],IC50,human ME2,308 µM
"O=C(O)c1ccc2cc(C(=O)O)ccc2c1 [2,6-dicarboxy naphthalene]",IC50,human ME2,353 µM
"O=C(O)c1cc(Cc2ccc(O)c(C(=O)O)c2)ccc1O [MDSA, 5,5′-methylenedisalicylic acid]",NADPH content,H1299 cells [1],reduce
same,pyruvate content,H1299 cells [1],reduce
same,NADPH content,MCF-7 cells [2],not reduced significantly
same,pyruvate content,MCF-7 cells [2],not reduced significantly
same,ATP content,H1299 cells [3],lower
same,ROS content,H1299 cells [3],increase
same,ATP generation (mitochondrial electron transport chain),H1299 cells [4],lowered
same,spare respiratory capacity,MCF-7 cells [5],remained the same
same,cell invasion,H1299 cells [6],inhibit
same,cell invasion,MCF-7 cells [7],cannot inhibit
O=C(O)c1ccc2ccccc2c1O [1-hydroxy-2-naphthoic acid],IC50,human ME2,74.7 µM
same,inhibiting the activity of ME2 (in words),human ME2,relatively effective
O=C(O)c1cccc(C(=O)c2ccccc2)c1 [3-benzoyl-benzoic acid],IC50,human ME2,652 µM
